Columns and labels:
Assay in all cases: KinaseProfiler off-target kinase profiling
Assay type in all cases: biochemical
Settings in all cases: 10 μM, ATP near Km
AKT2 = molecular target: T1, AKT2 (Homo sapiens, UniProt P31751)
T1 construct: purchased Millipore, Inc. (KinaseProfiler service)
Method: (§1) A representative compound of the invention (Example 48) was tested for off-target kinase activity at a concentration of 10 μM by Millipore, Inc. in their KinaseProfiler™ service against all the kinases available in their full kinase panel. The compound was run in duplicate at a concentration of ATP near the Km for each individual kinase according to Millipore's specifications. The results are shown in Table B. Data are reported as percent of control (POC) and are the average of the two replicates.

Abl2 = molecular target: T2, Abl2 (Homo sapiens, UniProt P42684)
T2 construct: purchased Millipore, Inc. (KinaseProfiler service)
Method: as §1

BrSK1 = molecular target: T3, BrSK1 (Homo sapiens, UniProt Q8TDC3)
T3 construct: purchased Millipore, Inc. (KinaseProfiler service)
Method: as §1

CDK2/cyclinE = molecular target: T4, CDK2/cyclinE (Homo sapiens, UniProt P24941)
T4 construct: purchased Millipore, Inc. (KinaseProfiler service)
Method: as §1

CDK6/cyclinD3 = molecular target: T5, CDK6/cyclinD3 (Homo sapiens, UniProt Q00534)
T5 construct: purchased Millipore, Inc. (KinaseProfiler service)
Method: as §1

CK1gamma2 = molecular target: T6, CK1gamma2 (Homo sapiens, UniProt P78368)
T6 construct: purchased Millipore, Inc. (KinaseProfiler service)
Method: as §1

CK1gamma3 = molecular target: T7, CK1gamma3 (Homo sapiens, UniProt Q9Y6M4)
T7 construct: purchased Millipore, Inc. (KinaseProfiler service)
Method: as §1

CK2alpha2 = molecular target: T8, CK2alpha2 (Homo sapiens, UniProt P19784)
T8 construct: purchased Millipore, Inc. (KinaseProfiler service)
Method: as §1

ERK1 = molecular target: T9, ERK1 (Homo sapiens, UniProt P27361)
T9 construct: purchased Millipore, Inc. (KinaseProfiler service)
Method: as §1

ERK2 = molecular target: T10, ERK2 (Homo sapiens, UniProt P28482)
T10 construct: purchased Millipore, Inc. (KinaseProfiler service)
Method: as §1

EphB1 = molecular target: T11, EphB1 (Homo sapiens, UniProt P54762)
T11 construct: purchased Millipore, Inc. (KinaseProfiler service)
Method: as §1

Fer = molecular target: T12, Fer (Homo sapiens, UniProt P16591)
T12 construct: purchased Millipore, Inc. (KinaseProfiler service)
Method: as §1

Fes = molecular target: T13, Fes (Homo sapiens, UniProt P07332)
T13 construct: purchased Millipore, Inc. (KinaseProfiler service)
Method: as §1

Flt1 = molecular target: T14, Flt1 (Homo sapiens, UniProt P17948)
T14 construct: purchased Millipore, Inc. (KinaseProfiler service)
Method: as §1

IGF-1R = molecular target: T15, IGF-1R (Homo sapiens, UniProt P08069)
T15 construct: purchased Millipore, Inc. (KinaseProfiler service)
Method: as §1

IKKalpha = molecular target: T16, IKKalpha (Homo sapiens, UniProt O15111)
T16 construct: purchased Millipore, Inc. (KinaseProfiler service)
Method: as §1

IR Activated = molecular target: T17, IR Activated (Homo sapiens, UniProt P06213)
T17 construct: purchased Millipore, Inc. (KinaseProfiler service)
Method: as §1

ITK = molecular target: T18, ITK (Homo sapiens, UniProt Q08881)
T18 construct: purchased Millipore, Inc. (KinaseProfiler service)
Method: as §1

KIT = molecular target: T19, KIT (Homo sapiens, UniProt P10721)
T19 construct: purchased Millipore, Inc. (KinaseProfiler service)
Method: as §1

Lck = molecular target: T20, Lck (Homo sapiens, UniProt P06239)
T20 construct: purchased Millipore, Inc. (KinaseProfiler service)
Method: as §1

MAPKAP-K2 = molecular target: T21, MAPKAP-K2 (Homo sapiens, UniProt P49137)
T21 construct: purchased Millipore, Inc. (KinaseProfiler service)
Method: as §1

MLK1 = molecular target: T22, MLK1 (Homo sapiens, UniProt P80192)
T22 construct: purchased Millipore, Inc. (KinaseProfiler service)
Method: as §1

PAK4 = molecular target: T23, PAK4 (Homo sapiens, UniProt O96013)
T23 construct: purchased Millipore, Inc. (KinaseProfiler service)
Method: as §1

PKCbetaI = molecular target: T24, PKCbetaI (Homo sapiens, UniProt P05771)
T24 construct: purchased Millipore, Inc. (KinaseProfiler service)
Method: as §1

PKCbetaII = molecular target: T25, PKCbetaII (Homo sapiens, UniProt P05771)
T25 construct: purchased Millipore, Inc. (KinaseProfiler service)
Method: as §1

PKCgamma = molecular target: T26, PKCgamma (Homo sapiens, UniProt P05129)
T26 construct: purchased Millipore, Inc. (KinaseProfiler service)
Method: as §1

PRK2 = molecular target: T27, PRK2 (Homo sapiens, UniProt Q16513)
T27 construct: purchased Millipore, Inc. (KinaseProfiler service)
Method: as §1

PRKG1beta = molecular target: T28, PRKG1beta (Homo sapiens, UniProt Q13976)
T28 construct: purchased Millipore, Inc. (KinaseProfiler service)
Method: as §1

Pim-3 = molecular target: T29, Pim-3 (Homo sapiens, UniProt Q86V86)
T29 construct: purchased Millipore, Inc. (KinaseProfiler service)
Method: as §1

Plk2 = molecular target: T30, Plk2 (Homo sapiens, UniProt Q9NYY3)
T30 construct: purchased Millipore, Inc. (KinaseProfiler service)
Method: as §1

Ret = molecular target: T31, Ret (Homo sapiens, UniProt P07949)
T31 construct: purchased Millipore, Inc. (KinaseProfiler service)
Method: as §1

Rse = molecular target: T32, Rse (Homo sapiens, UniProt Q06418)
T32 construct: purchased Millipore, Inc. (KinaseProfiler service)
Method: as §1

Rsk3 = molecular target: T33, Rsk3 (Homo sapiens, UniProt Q15349)
T33 construct: purchased Millipore, Inc. (KinaseProfiler service)
Method: as §1

Rsk4 = molecular target: T34, Rsk4 (Homo sapiens, UniProt Q9UK32)
T34 construct: purchased Millipore, Inc. (KinaseProfiler service)
Method: as §1

SGK2 = molecular target: T35, SGK2 (Homo sapiens, UniProt Q9HBY8)
T35 construct: purchased Millipore, Inc. (KinaseProfiler service)
Method: as §1

SGK3 = molecular target: T36, SGK3 (Homo sapiens, UniProt Q96BR1)
T36 construct: purchased Millipore, Inc. (KinaseProfiler service)
Method: as §1

SRPK2 = molecular target: T37, SRPK2 (Homo sapiens, UniProt P78362)
T37 construct: purchased Millipore, Inc. (KinaseProfiler service)
Method: as §1

TAO1 = molecular target: T38, TAO1 (Homo sapiens, UniProt Q7L7X3)
T38 construct: purchased Millipore, Inc. (KinaseProfiler service)
Method: as §1

c-RAF = molecular target: T39, c-RAF (Homo sapiens, UniProt P04049, Y340D/Y341D)
T39 construct: purchased Millipore, Inc. (KinaseProfiler service)
Method: as §1

p38alpha = molecular target: T40, p38alpha (Homo sapiens, UniProt Q16539)
T40 construct: purchased Millipore, Inc. (KinaseProfiler service)
Method: as §1

p70S6K = molecular target: T41, p70S6K (Homo sapiens, UniProt P23443)
T41 construct: purchased Millipore, Inc. (KinaseProfiler service)
Method: as §1

T8 sequence (P19784 whole entry): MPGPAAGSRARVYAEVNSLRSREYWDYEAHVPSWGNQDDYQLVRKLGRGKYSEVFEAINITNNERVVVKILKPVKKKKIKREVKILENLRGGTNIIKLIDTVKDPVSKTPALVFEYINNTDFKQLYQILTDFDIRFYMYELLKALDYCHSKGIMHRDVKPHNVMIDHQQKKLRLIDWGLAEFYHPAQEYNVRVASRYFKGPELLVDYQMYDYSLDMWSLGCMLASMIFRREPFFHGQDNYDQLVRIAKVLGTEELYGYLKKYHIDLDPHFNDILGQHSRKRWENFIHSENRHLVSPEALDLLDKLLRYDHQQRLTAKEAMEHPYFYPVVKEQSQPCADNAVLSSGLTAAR
T7 sequence (Q9Y6M4 whole entry): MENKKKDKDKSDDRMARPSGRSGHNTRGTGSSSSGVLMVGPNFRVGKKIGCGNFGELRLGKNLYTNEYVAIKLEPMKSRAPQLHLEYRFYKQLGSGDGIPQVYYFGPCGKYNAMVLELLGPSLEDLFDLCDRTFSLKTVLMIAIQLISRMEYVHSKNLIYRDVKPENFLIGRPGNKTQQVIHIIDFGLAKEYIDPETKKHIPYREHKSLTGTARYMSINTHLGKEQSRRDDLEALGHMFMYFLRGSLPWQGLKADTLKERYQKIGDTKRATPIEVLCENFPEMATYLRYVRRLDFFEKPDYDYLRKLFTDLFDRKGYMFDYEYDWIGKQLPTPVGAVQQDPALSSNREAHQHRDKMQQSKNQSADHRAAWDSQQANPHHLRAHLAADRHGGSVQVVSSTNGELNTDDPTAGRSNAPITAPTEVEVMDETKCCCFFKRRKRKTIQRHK
T17 sequence (P06213 28-1382): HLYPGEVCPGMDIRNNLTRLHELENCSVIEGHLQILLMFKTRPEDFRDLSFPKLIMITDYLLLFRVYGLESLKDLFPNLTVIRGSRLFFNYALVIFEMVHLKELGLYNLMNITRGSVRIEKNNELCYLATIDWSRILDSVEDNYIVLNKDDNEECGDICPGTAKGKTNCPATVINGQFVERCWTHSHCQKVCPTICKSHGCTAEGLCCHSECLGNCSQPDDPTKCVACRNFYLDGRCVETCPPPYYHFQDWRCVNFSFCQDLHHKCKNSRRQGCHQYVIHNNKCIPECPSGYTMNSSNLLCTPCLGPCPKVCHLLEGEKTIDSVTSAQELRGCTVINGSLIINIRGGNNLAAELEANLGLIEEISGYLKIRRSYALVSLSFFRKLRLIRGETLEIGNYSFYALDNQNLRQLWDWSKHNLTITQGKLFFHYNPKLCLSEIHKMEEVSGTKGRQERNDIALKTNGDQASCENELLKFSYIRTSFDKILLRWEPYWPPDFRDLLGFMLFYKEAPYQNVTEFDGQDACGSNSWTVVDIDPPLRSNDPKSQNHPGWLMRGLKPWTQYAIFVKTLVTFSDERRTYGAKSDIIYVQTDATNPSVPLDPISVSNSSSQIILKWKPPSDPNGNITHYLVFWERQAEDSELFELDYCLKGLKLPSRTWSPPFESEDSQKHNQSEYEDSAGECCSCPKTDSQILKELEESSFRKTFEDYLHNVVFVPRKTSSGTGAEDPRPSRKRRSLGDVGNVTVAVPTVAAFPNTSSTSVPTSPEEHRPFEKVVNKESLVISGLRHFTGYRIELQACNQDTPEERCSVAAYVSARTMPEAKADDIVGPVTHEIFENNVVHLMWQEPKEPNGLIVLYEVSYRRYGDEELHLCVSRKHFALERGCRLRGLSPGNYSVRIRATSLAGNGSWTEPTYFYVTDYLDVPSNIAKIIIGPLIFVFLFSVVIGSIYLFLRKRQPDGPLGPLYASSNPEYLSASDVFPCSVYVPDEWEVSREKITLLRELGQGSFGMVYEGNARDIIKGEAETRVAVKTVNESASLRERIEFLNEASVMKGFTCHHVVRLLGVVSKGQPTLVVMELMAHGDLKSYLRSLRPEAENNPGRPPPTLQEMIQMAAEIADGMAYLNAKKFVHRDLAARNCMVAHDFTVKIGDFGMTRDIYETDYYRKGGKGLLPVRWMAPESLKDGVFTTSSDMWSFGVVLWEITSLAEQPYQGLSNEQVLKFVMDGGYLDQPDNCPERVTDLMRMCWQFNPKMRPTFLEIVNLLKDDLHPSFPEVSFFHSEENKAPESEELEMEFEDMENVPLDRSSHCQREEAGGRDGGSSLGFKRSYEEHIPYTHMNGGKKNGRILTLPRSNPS
T15 sequence (P08069 31-1367): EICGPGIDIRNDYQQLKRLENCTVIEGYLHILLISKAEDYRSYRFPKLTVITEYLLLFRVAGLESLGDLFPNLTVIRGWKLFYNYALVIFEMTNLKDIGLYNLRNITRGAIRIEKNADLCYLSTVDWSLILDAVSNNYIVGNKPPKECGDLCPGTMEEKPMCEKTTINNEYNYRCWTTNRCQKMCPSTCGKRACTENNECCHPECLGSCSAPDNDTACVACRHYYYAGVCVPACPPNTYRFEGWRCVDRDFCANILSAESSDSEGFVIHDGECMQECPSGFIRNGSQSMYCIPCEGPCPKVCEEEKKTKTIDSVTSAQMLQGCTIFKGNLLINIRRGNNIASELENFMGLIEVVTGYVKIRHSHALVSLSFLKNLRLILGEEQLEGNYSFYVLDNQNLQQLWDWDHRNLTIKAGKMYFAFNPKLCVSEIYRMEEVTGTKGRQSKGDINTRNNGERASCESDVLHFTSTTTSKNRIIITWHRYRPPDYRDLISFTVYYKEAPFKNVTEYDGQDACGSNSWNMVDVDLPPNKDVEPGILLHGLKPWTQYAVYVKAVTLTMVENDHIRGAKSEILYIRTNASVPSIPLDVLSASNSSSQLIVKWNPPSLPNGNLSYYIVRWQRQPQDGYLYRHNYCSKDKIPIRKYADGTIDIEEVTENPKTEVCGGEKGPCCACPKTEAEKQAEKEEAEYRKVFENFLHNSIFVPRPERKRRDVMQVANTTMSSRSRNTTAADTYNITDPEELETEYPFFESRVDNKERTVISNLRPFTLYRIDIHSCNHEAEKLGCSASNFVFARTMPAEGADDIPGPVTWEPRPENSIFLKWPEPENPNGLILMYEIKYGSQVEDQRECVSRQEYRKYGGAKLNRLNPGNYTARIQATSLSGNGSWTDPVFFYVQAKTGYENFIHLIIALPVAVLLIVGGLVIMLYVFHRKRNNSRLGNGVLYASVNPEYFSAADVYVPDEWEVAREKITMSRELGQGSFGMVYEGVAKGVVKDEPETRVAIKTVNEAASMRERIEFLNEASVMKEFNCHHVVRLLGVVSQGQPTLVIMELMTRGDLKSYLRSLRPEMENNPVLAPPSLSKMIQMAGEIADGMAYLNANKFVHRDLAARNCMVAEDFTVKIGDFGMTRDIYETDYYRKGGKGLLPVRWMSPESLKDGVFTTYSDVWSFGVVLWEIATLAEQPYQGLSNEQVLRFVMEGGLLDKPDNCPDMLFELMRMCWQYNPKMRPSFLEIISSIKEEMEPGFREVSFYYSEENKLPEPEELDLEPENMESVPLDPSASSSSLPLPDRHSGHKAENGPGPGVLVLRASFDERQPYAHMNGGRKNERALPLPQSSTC
T34 sequence (Q9UK32 whole entry): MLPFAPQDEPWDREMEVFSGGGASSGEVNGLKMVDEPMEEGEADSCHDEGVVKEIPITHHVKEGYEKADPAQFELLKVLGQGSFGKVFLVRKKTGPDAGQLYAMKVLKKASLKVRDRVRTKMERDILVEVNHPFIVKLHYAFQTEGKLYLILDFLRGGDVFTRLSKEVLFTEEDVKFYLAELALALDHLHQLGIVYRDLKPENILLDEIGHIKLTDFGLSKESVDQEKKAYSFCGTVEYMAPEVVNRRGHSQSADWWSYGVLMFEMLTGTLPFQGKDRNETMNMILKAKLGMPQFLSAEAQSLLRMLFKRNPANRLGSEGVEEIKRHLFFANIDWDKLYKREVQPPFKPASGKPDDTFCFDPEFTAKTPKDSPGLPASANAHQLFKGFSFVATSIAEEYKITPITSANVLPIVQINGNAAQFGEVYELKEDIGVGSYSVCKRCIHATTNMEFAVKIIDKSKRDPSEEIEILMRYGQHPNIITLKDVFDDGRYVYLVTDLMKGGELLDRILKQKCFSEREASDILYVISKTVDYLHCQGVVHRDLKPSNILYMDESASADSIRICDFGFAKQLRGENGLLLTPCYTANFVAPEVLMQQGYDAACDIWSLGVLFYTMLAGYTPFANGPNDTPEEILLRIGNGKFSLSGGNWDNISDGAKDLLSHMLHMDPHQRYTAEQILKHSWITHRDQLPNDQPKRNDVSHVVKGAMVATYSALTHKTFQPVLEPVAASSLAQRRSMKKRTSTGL
T33 sequence (Q15349 whole entry): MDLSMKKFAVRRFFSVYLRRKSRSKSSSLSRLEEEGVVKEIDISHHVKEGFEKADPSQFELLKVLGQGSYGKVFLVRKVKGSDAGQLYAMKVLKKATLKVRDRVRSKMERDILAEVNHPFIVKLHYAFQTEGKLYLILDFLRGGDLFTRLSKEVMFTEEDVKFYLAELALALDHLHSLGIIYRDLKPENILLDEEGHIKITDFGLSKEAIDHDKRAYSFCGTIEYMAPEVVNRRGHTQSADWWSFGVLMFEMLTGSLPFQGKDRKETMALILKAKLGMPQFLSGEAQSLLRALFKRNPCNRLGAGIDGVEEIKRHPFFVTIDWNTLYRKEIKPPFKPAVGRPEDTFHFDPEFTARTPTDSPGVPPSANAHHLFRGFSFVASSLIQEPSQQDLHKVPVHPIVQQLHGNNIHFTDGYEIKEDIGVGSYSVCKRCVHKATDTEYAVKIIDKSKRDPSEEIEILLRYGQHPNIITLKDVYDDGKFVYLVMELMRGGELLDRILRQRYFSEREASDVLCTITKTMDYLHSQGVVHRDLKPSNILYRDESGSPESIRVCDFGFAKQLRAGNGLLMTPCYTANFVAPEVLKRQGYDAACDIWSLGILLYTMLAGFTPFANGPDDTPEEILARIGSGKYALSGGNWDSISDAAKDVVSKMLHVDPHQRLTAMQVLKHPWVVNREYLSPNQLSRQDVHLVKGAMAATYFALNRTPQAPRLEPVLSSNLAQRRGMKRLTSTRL

Avg POC (AKT2): 148% of control
Avg POC (Abl2): 124.5% of control
Avg POC (BrSK1): 123.5% of control
Avg POC (CDK2/cyclinE): 113% of control
Avg POC (CDK6/cyclinD3): 112.5% of control
Avg POC (CK1gamma2): 94.5% of control
Avg POC (CK1gamma3): 110% of control
Avg POC (CK2alpha2): 113% of control
Avg POC (ERK1): 100% of control
Avg POC (ERK2): 101% of control
Avg POC (EphB1): 107.5% of control
Avg POC (Fer): 91.5% of control
Avg POC (Fes): 86.5% of control
Avg POC (Flt1): 96.5% of control
Avg POC (IGF-1R): 85.5% of control
Avg POC (IKKalpha): 112% of control
Avg POC (IR Activated): 111.5% of control
Avg POC (ITK): 170.5% of control
Avg POC (KIT): 100% of control
Avg POC (Lck): 102% of control
Avg POC (MAPKAP-K2): 109.5% of control
Avg POC (MLK1): 115% of control
Avg POC (PAK4): 134.5% of control
Avg POC (PKCbetaI): 97% of control
Avg POC (PKCbetaII): 97.5% of control
Avg POC (PKCgamma): 93.5% of control
Avg POC (PRK2): 111% of control
Avg POC (PRKG1beta): 105% of control
Avg POC (Pim-3): 140.5% of control
Avg POC (Plk2): 99.5% of control
Avg POC (Ret): 125.5% of control
Avg POC (Rse): 117% of control
Avg POC (Rsk3): 108% of control
Avg POC (Rsk4): 116% of control
Avg POC (SGK2): 121.5% of control
Avg POC (SGK3): 82% of control
Avg POC (SRPK2): 109% of control
Avg POC (TAO1): 101% of control
Avg POC (c-RAF): 106% of control
Avg POC (p38alpha): 108% of control
Avg POC (p70S6K): 107.5% of control
Compound: COCCN1C[C@@H](NC(=O)Nc2sc(C(C)C)nc2-c2ccccc2)[C@H](c2ccccc2)C1 [Example 48, 1-(2-isopropyl-4-phenylthiazol-5-yl)-3-((3S,4R)-1-(2-methoxyethyl)-4-phenylpyrrolidin-3-yl)urea]

Source: patent US9828360B2 (Array BioPharma Inc., priority 2012, dated 2017)
